This experiment has as its target T1, human BRD4 bromodomain II (Homo sapiens, UniProt O60885).
T1 construct: human BRD4 bromodomain II [based on Genbank NM_058243, residues 349-460]; host or cells: E. coli
Nature of the experiment: Bromodomain binding assay (AlphaScreen), BRD4 BDII. Particulars: AlphaScreen assay, Table C2; read-out: BRD4 BDII IC50. The protocol: Bromodomain Binding Assay
The bromodomain binding assay utilizes AlphaScreen technology. Compounds compete with a biotinylated peptide ligand (from histone H4: aa 1-21, K5/K8/K12/K16Ac-biotin) for binding to a hexahistidine (His6)-tagged bromodomain. Peptide binding is detected by fluorescence signal after singlet oxygen energy transfer from peptide-bound AlphaScreen streptavidin-coated donor beads to His6-tagged bromodomain-bound nickel-chelate acceptor beads (PerkinElmer). Briefly, 8 μL 2.5× bromodomain (E. coli expressed, N-terminal His6-tagged human BRD4 bromodomain II [based on Genbank NM_058243, residues 349-460] or N-terminal His6-tagged human BRD4 bromodomain I [residues 44-170]) in reaction buffer (50 mM HEPES [pH 7.5], 100 mM NaCl, 0.05% CHAPS, 0.1% BSA, 1% DMSO) is added to wells of an assay plate (384-well low flange white, flat bottom, polystyrene microplate, Corning #3572; buffer only is added to some wells as a negative control). A compound concentration series (10 concentrations, 3-fold serial dilutions previously prepared in 100% DMSO, or 100% DMSO only negative control) is delivered to the assay plate with an Echo 550 acoustic liquid handler (Labcyte), followed by plate centrifugation and incubation for 30 minutes at room temperature. Then 4 μL 5× biotinylated peptide ligand is added, followed by plate centrifugation and gentle shaking for 30 minutes at room temperature to mix. After this incubation, 4 μL 5× donor beads are added, and the plate is centrifuged, followed by brief gentle shaking to mix. Finally, 4 μL 5× acceptor beads are added, and the plate is centrifuged, followed by gentle shaking for 60 minutes at room temperature in the dark. AlphaScreen signal (excitation/emission: 680 nm/520-620 nm) is detected with an EnSpire multimode plate reader (PerkinElmer). Percentage peptide binding is plotted as a function of concentration, and curve fitting is used to determine competitive compound binding ICsos.

Structures are written as SMILES. Counter-ions that a name gives are not always drawn.

Consider `CCc1cccc(-c2cccc(-c3ccc(NC(C)=O)c(F)c3)c2O)c1` [Example 79, N-(3″-Ethyl-3-fluoro-2′-hydroxy-[1,1′:3′,1″-terphenyl]-4-yl)acetamide], for which the IC50 – broadly, the midpoint of a concentration-inhibition curve – was greater than 100 nM.
In the case of `CCOc1cc(-c2cccc(-c3ccc(NC(C)=O)c(F)c3)c2O)ccc1NC(C)=O` [Example 52, N,N′-(3-Ethoxy-3″-fluoro-2′-hydroxy-[1,1′:3′,1″-terphenyl]-4,4″-diyl)diacetamide] it was 10 to 100 nM; in that of `CC(=O)Nc1ccc(-c2cccc(-c3cc(N4CCNCC4)no3)c2O)cc1OC(F)F` [Example 26, N-(3-(Difluoromethoxy)-2′-hydroxy-3′-(3-(piperazin-1-yl)isoxazol-5-yl)-[1,1′-biphenyl]-4-yl)acetamide 2,2,2-trifluoroacetate], greater than 100 nM.
In the case of `COc1cc(-c2cccc(-c3cc(Cl)c(NC(C)=O)c(Cl)c3)c2O)ccc1NC(C)=O` [Example 132, N,N′-(3,5-Dichloro-2′-hydroxy-3″-methoxy-[1,1′:3′,1″-terphenyl]-4,4″-diyl)diacetamide] it was 10 to 100 nM.
For `CC(=O)Nc1ccc(-c2cccc(-c3ccc4[nH]ccc4c3)c2O)cc1F` [Example 123, N-(3-Fluoro-2′-hydroxy-3′-(1H-indol-5-yl)-[1,1′-biphenyl]-4-yl)acetamide] the value was greater than 100 nM.
In the case of `CC(=O)Nc1ccc(-c2cccc(-c3ccncc3)c2O)cc1F` [Example 67, N-(3-Fluoro-2′-hydroxy-3′-(pyridin-4-yl)-[1,1′-biphenyl]-4-yl)acetamide], the half-inhibitory concentration (IC50) was greater than 100 nM.
`CC(=O)Nc1ccc(-c2cccc(-c3csc(N4CCNCC4)n3)c2O)cc1F` [Example 212, N-(3-Fluoro-2′-hydroxy-3′-(2-(piperazin-1-yl)thiazol-4-yl)-[1,1′-biphenyl]-4-yl)acetamide]: the half-inhibitory concentration (IC50) is greater than 100 nM.
As to `COc1cc(-c2cccc(-c3ccc(NC(C)=O)c(F)c3)c2O)ccn1` [Example 97, N-(3-Fluoro-2′-hydroxy-3′-(2-methoxypyridin-4-yl)-[1,1′-biphenyl]-4-yl)acetamide], the IC50 was greater than 100 nM.
For `CCNC(=O)c1ccc(-c2cccc(-c3ccc(NC(C)=O)c(F)c3)c2O)cc1` [Example 92, 4″-Acetamido-N-ethyl-3″-fluoro-2′-hydroxy-[1,1′:3′,1″-terphenyl]-4-carboxamide] the value was greater than 100 nM; for `CC(=O)Nc1ccc(-c2cccc(-c3cncnc3)c2O)cc1F` [Example 103, N-(3-Fluoro-2′-hydroxy-3′-(pyrimidin-5-yl)-[1,1′-biphenyl]-4-yl)acetamide], 10 to 100 nM.
As for `CC(=O)Nc1ccc(-c2cccc(-c3cccc(N4CCNC[C@H]4C)c3)c2O)cc1F` [Example 169, (R)-N-(3-fluoro-2′-hydroxy-3″-(2-methylpiperazin-1-yl)-[1,1′:3′,1″-terphenyl]-4-yl)acetamide], the concentration for half-maximal inhibition (IC50) is 1 to 10 nM.
For `CC(=O)Nc1ccc(-c2cccc(-c3cccc(Cl)c3)c2O)cc1F` [Example 77, N-(3″-Chloro-3-fluoro-2′-hydroxy-[1,1′:3′,1″-terphenyl]-4-yl)acetamide] the value was greater than 100 nM.
In the case of `CC(=O)Nc1ccc(-c2cccc(-c3ccc4c(ccn4C)c3)c2O)cc1F` [Example 130, N-(3-Fluoro-2′-hydroxy-3′-(1-methyl-1H-indol-5-yl)-[1,1′-biphenyl]-4-yl)acetamide] it was greater than 100 nM; in that of `CC(=O)Nc1ccc(-c2cccc(-c3cc(N4CCNCC4)no3)c2O)cc1OC(F)(F)F` [Example 25, N-(2′-hydroxy-3′-(3-(piperazin-1-yl)isoxazol-5-yl)-3-(trifluoromethoxy)-[1,1′-biphenyl]-4-yl)acetamide], greater than 100 nM; in that of `CC(=O)Nc1ccc(-c2cccc(-c3ccc(NC(C)=O)c(F)c3)c2O)cc1F` [Example 33, N,N′-(3,3″-Difluoro-2′-hydroxy-[1,1′:3′,1″-terphenyl]-4,4″-diyl)diacetamide], greater than 100 nM.
For `CC(=O)Nc1ccc(-c2cccc(-c3cc(N4CCNCC4)no3)c2O)cc1C` [Example 21, N-(2′-Hydroxy-3-methyl-3′-(3-(piperazin-1-yl)isoxazol-5-yl)-[1,1′-biphenyl]-4-yl)acetamide hydrochloride] the value was greater than 100 nM; for `COc1cc(-c2cccc(-c3ccc(NC(C)=O)c(F)c3)c2O)ccc1F` [Example 157, N-(3,4″-difluoro-2′-hydroxy-3″-methoxy-[1,1′:3′,1″-terphenyl]-4-yl)acetamide], greater than 100 nM; for `CC(=O)Nc1ccc(-c2cccc(-c3ccc4c(c3)CNC(=O)N4)c2O)cc1F` [Example 155, N-(3-fluoro-2′-hydroxy-3′-(2-oxo-1,2,3,4-tetrahydroquinazolin-6-yl)-[1,1′-biphenyl]-4-yl)acetamide], 10 to 100 nM.
In the case of `CC(=O)Nc1ccc(-c2cccc(-c3ccc4c(c3)CCCN4C(C)=O)c2O)cc1F` [Example 101, N-(3′-(1-Acetyl-1,2,3,4-tetrahydroquinolin-6-yl)-3-fluoro-2′-hydroxy-[1,1′-biphenyl]-4-yl)acetamide], the half-maximal inhibitory concentration (IC50) was greater than 100 nM.
In the case of `COc1ccc(F)c(-c2cccc(-c3ccc(NC(C)=O)c(F)c3)c2O)c1` [Example 158, N-(2″,3-difluoro-2′-hydroxy-5″-methoxy-[1,1′:3′,1″-terphenyl]-4-yl)acetamide] it was greater than 100 nM; in that of `CC(=O)Nc1ccc(-c2cccc(-n3cnc(-c4ccc(F)cc4)c3)c2O)cc1` [Example 18, N-(3′-(4-(4-Fluorophenyl)-1H-imidazol-1-yl)-2′-hydroxy-[1,1′-biphenyl]-4-yl)acetamide], greater than 100 nM; in that of `CC(=O)Nc1c(F)cc(-c2cccc(-c3cccc(N4CCNCC4)c3)c2O)cc1OCC1CC1` [Example 184, N-(3-(cyclopropylmethoxy)-5-fluoro-2′-hydroxy-3″-(piperazin-1-yl)-[1,1′:3′,1″-terphenyl]-4-yl)acetamide], 10 to 100 nM.
In the case of `CC(=O)Nc1ccc(-c2cccc(-c3ccc4c(c3)OCCN4C)c2O)cc1F` [Example 144, N-(3-fluoro-2′-hydroxy-3′-(4-methyl-3,4-dihydro-2H-benzo[b][1,4]oxazin-7-yl)-[1,1′-biphenyl]-4-yl)acetamide] it was greater than 100 nM; in that of `O=C(Nc1ccc(-c2cccc(-c3cc(N4CCNCC4)no3)c2O)cc1)C(F)F` [Example 48, 2,2-Difluoro-N-(2′-hydroxy-3′-(3-(piperazin-1-yl)isoxazol-5-yl)-[1,1′-biphenyl]-4-yl)acetamide 2,2,2-trifluoroacetate], greater than 100 nM.
In the case of `CC(=O)Nc1ccc(-c2cccc(-c3ccc(NC(C)=O)c(F)c3)c2O)cc1C` [Example 50, N,N′-(3-Fluoro-2′-hydroxy-3″-methyl-[1,1′:3′,1″-terphenyl]-4,4″-diyl)diacetamide] it was 10 to 100 nM; in that of `CC(=O)Nc1ccc(-c2cccc(-c3ccc4c(c3)ncn4C)c2O)cc1F` [Example 121, N-(3-Fluoro-2′-hydroxy-3′-(1-methyl-1H-benzo[d]imidazol-5-yl)-[1,1′-biphenyl]-4-yl)acetamide], greater than 100 nM; in that of `CC(=O)Nc1ccc(-c2cccc(-c3ccnnc3)c2O)cc1F` [Example 102, N-(3-Fluoro-2′-hydroxy-3′-(pyridazin-4-yl)-[1,1′-biphenyl]-4-yl)acetamide], 10 to 100 nM.
`CC(=O)Nc1ccc(-c2cccc(-c3cc(N4CCNCC4)n(C)n3)c2O)cc1F` [Example 160, N-(3-fluoro-2′-hydroxy-3′-(1-methyl-5-(piperazin-1-yl)-1H-pyrazol-3-yl)-[1,1′-biphenyl]-4-yl)acetamide]: the IC50 was greater than 100 nM.
For the compound `O=C(Nc1ccc(-c2cccc(-c3cc(N4CCNCC4)no3)c2O)cc1)C(F)(F)F` [Example 39, 2,2,2-Trifluoro-N-(2′-hydroxy-3′-(3-(piperazin-1-yl)isoxazol-5-yl)-[1,1′-biphenyl]-4-yl)acetamide 2,2,2-trifluoroacetate], the IC50 was greater than 100 nM.
For `CC(=O)N1CCC(=O)N(C)c2cc(-c3cccc(-c4cc(N5CCNCC5)no4)c3O)ccc21` [Example 38, 5-Acetyl-8-(2-hydroxy-3-(3-(piperazin-1-yl)isoxazol-5-yl)phenyl)-1-methyl-1,3,4,5-tetrahydro-2H-benzo[b][1,4]diazepin-2-one] the value was greater than 100 nM; for `CC(=O)Nc1ccc(-c2cccc(-c3cc(N4CCN(C5COC5)CC4)no3)c2O)cc1F` [Example 153, N-(3-fluoro-2′-hydroxy-3′-(3-(4-(oxetan-3-yl)piperazin-1-yl)isoxazol-5-yl)-[1,1′-biphenyl]-4-yl)acetamide], 10 to 100 nM.
For `CC(=O)Nc1ccc(-c2cccc(-c3ccc(OC4CCCC4)cc3)c2O)cc1F` [Example 118, N-(4″-(Cyclopentyloxy)-3-fluoro-2′-hydroxy-[1,1′:3′,1″-terphenyl]-4-yl)acetamide] the value was greater than 100 nM.

Values taken from patent publication US20250179059A1 (The Regents of the University of California, priority 2021, published 2025).
